Data taken from US20030224416A1, “Schizophrenia related gene” (priority 2002, published 2003).

System: Kv3.1 α-subunit mRNA
Assay: Experiment 1: in situ hybridization of Kv3.1 α-subunit mRNA in brain, chronic PCP rat model of schizophrenia with antipsychotic co-treatment
Assay type: in vivo

With Cc1cc2c(s1)Nc1ccccc1N=C2N1CCN(C)CC1 [Olanzapine, olanzapine] the “Kv3.1 α-subunit mRNA expression” value (ACg, PCP + drug 0.3 mg/kg/day) was 15.83 ± 0.73 PSL/mm^2, the “Kv3.1 α-subunit mRNA expression” value (ACg, PCP + drug 1 mg/kg/day) was 14.83 ± 1.00 PSL/mm^2 and the “Kv3.1 α-subunit mRNA expression” value (ACg, PCP + drug 3 mg/kg/day) was 16.31 ± 0.40 PSL/mm^2. For the same compound, the “Kv3.1 α-subunit mRNA expression” value (ACg, PCP + drug 10 mg/kg/day) was 15.03 ± 0.72 PSL/mm^2, the “Kv3.1 α-subunit mRNA expression” value (AcbC, PCP + drug 0.3 mg/kg/day) was 8.59 ± 0.58 PSL/mm^2 and the “Kv3.1 α-subunit mRNA expression” value (AcbC, PCP + drug 1 mg/kg/day) was 8.12 ± 0.67 PSL/mm^2. For the same compound, the “Kv3.1 α-subunit mRNA expression” value (AcbC, PCP + drug 3 mg/kg/day) was 8.55 ± 0.25 PSL/mm^2, the “Kv3.1 α-subunit mRNA expression” value (AcbC, PCP + drug 10 mg/kg/day) was 8.27 ± 0.31 PSL/mm^2 and the “Kv3.1 α-subunit mRNA expression” value (AcbS, PCP + drug 0.3 mg/kg/day) was 11.42 ± 0.73 PSL/mm^2. For the same compound, the “Kv3.1 α-subunit mRNA expression” value (AcbS, PCP + drug 1 mg/kg/day) was 10.43 ± 0.56 PSL/mm^2, the “Kv3.1 α-subunit mRNA expression” value (AcbS, PCP + drug 3 mg/kg/day) was 11.62 ± 0.84 PSL/mm^2 and the “Kv3.1 α-subunit mRNA expression” value (AcbS, PCP + drug 10 mg/kg/day) was 11.95 ± 1.02 PSL/mm^2. The “Kv3.1 α-subunit mRNA expression” value (Au1, PCP + drug 0.3 mg/kg/day) was 18.60 ± 1.75 PSL/mm^2, the “Kv3.1 α-subunit mRNA expression” value (Au1, PCP + drug 1 mg/kg/day) was 18.68 ± 0.80 PSL/mm^2 and the “Kv3.1 α-subunit mRNA expression” value (Au1, PCP + drug 3 mg/kg/day) was 17.42 ± 1.46 PSL/mm^2. For the same compound, the “Kv3.1 α-subunit mRNA expression” value (Au1, PCP + drug 10 mg/kg/day) was 16.91 ± 0.86 PSL/mm^2, the “Kv3.1 α-subunit mRNA expression” value (CA1pd, PCP + drug 0.3 mg/kg/day) was 19.98 ± 1.59 PSL/mm^2 and the “Kv3.1 α-subunit mRNA expression” value (CA1pd, PCP + drug 1 mg/kg/day) was 19.14 ± 2.06 PSL/mm^2. For the same compound, the “Kv3.1 α-subunit mRNA expression” value (CA1pd, PCP + drug 3 mg/kg/day) was 18.37 ± 1.54 PSL/mm^2, the “Kv3.1 α-subunit mRNA expression” value (CA1pd, PCP + drug 10 mg/kg/day) was 20.15 ± 1.22 PSL/mm^2 and the “Kv3.1 α-subunit mRNA expression” value (CA2pd, PCP + drug 0.3 mg/kg/day) was 21.36 ± 2.52 PSL/mm^2. For the same compound, the “Kv3.1 α-subunit mRNA expression” value (CA2pd, PCP + drug 1 mg/kg/day) was 17.72 ± 1.86 PSL/mm^2, the “Kv3.1 α-subunit mRNA expression” value (CA2pd, PCP + drug 10 mg/kg/day) was 20.59 ± 1.35 PSL/mm^2 and the “Kv3.1 α-subunit mRNA expression” value (CA3pd, PCP + drug 0.3 mg/kg/day) was 33.71 ± 3.48 PSL/mm^2. The “Kv3.1 α-subunit mRNA expression” value (CA3pd, PCP + drug 1 mg/kg/day) was 30.50 ± 1.94 PSL/mm^2, the “Kv3.1 α-subunit mRNA expression” value (CA3pd, PCP + drug 3 mg/kg/day) was 33.46 ± 2.04 PSL/mm^2 and the “Kv3.1 α-subunit mRNA expression” value (CA3pd, PCP + drug 10 mg/kg/day) was 32.81 ± 1.82 PSL/mm^2. The “Kv3.1 α-subunit mRNA expression” value (DGgd, PCP + drug 0.3 mg/kg/day) was 35.22 ± 1.16 PSL/mm^2, the “Kv3.1 α-subunit mRNA expression” value (DGgd, PCP + drug 1 mg/kg/day) was 33.04 PSL/mm^2 and the “Kv3.1 α-subunit mRNA expression” value (DGgd, PCP + drug 3 mg/kg/day) was 36.51 ± 1.07 PSL/mm^2. For the same compound, the “Kv3.1 α-subunit mRNA expression” value (DGgd, PCP + drug 10 mg/kg/day) was 38.16 ± 1.10 PSL/mm^2, the “Kv3.1 α-subunit mRNA expression” value (IL, PCP + drug 0.3 mg/kg/day) was 12.00 ± 0.65 PSL/mm^2 and the “Kv3.1 α-subunit mRNA expression” value (IL, PCP + drug 1 mg/kg/day) was 11.27 ± 1.08 PSL/mm^2. The “Kv3.1 α-subunit mRNA expression” value (IL, PCP + drug 3 mg/kg/day) was 11.40 ± 0.41 PSL/mm^2, the “Kv3.1 α-subunit mRNA expression” value (IL, PCP + drug 10 mg/kg/day) was 12.15 ± 0.62 PSL/mm^2 and the “Kv3.1 α-subunit mRNA expression” value (IO, PCP + drug 0.3 mg/kg/day) was 15.50 ± 0.51 PSL/mm^2. For the same compound, the “Kv3.1 α-subunit mRNA expression” value (IO, PCP + drug 1 mg/kg/day) was 16.18 ± 0.32 PSL/mm^2, the “Kv3.1 α-subunit mRNA expression” value (IO, PCP + drug 3 mg/kg/day) was 16.83 ± 0.79 PSL/mm^2 and the “Kv3.1 α-subunit mRNA expression” value (IO, PCP + drug 10 mg/kg/day) was 17.74 ± 0.37 PSL/mm^2. For the same compound, the “Kv3.1 α-subunit mRNA expression” value (M1, PCP + drug 0.3 mg/kg/day) was 15.83 ± 0.69 PSL/mm^2, the “Kv3.1 α-subunit mRNA expression” value (M1, PCP + drug 1 mg/kg/day) was 16.17 ± 1.27 PSL/mm^2 and the “Kv3.1 α-subunit mRNA expression” value (M1, PCP + drug 3 mg/kg/day) was 16.17 ± 0.79 PSL/mm^2. For the same compound, the “Kv3.1 α-subunit mRNA expression” value (M1, PCP + drug 10 mg/kg/day) was 16.27 ± 0.37 PSL/mm^2, the “Kv3.1 α-subunit mRNA expression” value (M2, PCP + drug 3 mg/kg/day) was 14.48 ± 0.90 PSL/mm^2 and the “Kv3.1 α-subunit mRNA expression” value (MG, PCP + drug 0.3 mg/kg/day) was 26.64 ± 2.22 PSL/mm^2. The “Kv3.1 α-subunit mRNA expression” value (MM, PCP + drug 10 mg/kg/day) was 4.69 ± 2.24 PSL/mm^2, the “Kv3.1 α-subunit mRNA expression” value (Pir, PCP + drug 0.3 mg/kg/day) was 37.73 ± 1.18 PSL/mm^2 and the “Kv3.1 α-subunit mRNA expression” value (Pir, PCP + drug 1 mg/kg/day) was 36.82 ± 0.51 PSL/mm^2. For the same compound, the “Kv3.1 α-subunit mRNA expression” value (Pir, PCP + drug 3 mg/kg/day) was 43.78 ± 1.20 PSL/mm^2, the “Kv3.1 α-subunit mRNA expression” value (Pir, PCP + drug 10 mg/kg/day) was 40.66 ± 2.21 PSL/mm^2 and the “Kv3.1 α-subunit mRNA expression” value (RSa, PCP + drug 0.3 mg/kg/day) was 16.53 ± 1.13 PSL/mm^2. For the same compound, the “Kv3.1 α-subunit mRNA expression” value (RSa, PCP + drug 1 mg/kg/day) was 16.92 ± 0.74 PSL/mm^2, the “Kv3.1 α-subunit mRNA expression” value (RSa, PCP + drug 3 mg/kg/day) was 18.21 ± 1.15 PSL/mm^2 and the “Kv3.1 α-subunit mRNA expression” value (RSa, PCP + drug 10 mg/kg/day) was 18.77 ± 1.07 PSL/mm^2. For the same compound, the “Kv3.1 α-subunit mRNA expression” value (RSg, PCP + drug 0.3 mg/kg/day) was 19.48 ± 0.72 PSL/mm^2, the “Kv3.1 α-subunit mRNA expression” value (RSg, PCP + drug 1 mg/kg/day) was 19.43 ± 1.20 PSL/mm^2 and the “Kv3.1 α-subunit mRNA expression” value (RSg, PCP + drug 3 mg/kg/day) was 20.96 ± 1.08 PSL/mm^2. The “Kv3.1 α-subunit mRNA expression” value (RSg, PCP + drug 10 mg/kg/day) was 19.59 ± 0.92 PSL/mm^2, the “Kv3.1 α-subunit mRNA expression” value (VMStr, PCP + drug 3 mg/kg/day) was 7.52 PSL/mm^2 and the “Kv3.1 α-subunit mRNA expression” value (VMStr, PCP + drug 10 mg/kg/day) was 5.99 ± 0.28 PSL/mm^2. The “Kv3.1 α-subunit mRNA expression” value (VO, PCP + drug 0.3 mg/kg/day) was 19.03 ± 1.00 PSL/mm^2, the “Kv3.1 α-subunit mRNA expression” value (VO, PCP + drug 1 mg/kg/day) was 18.35 ± 1.04 PSL/mm^2 and the “Kv3.1 α-subunit mRNA expression” value (VO, PCP + drug 3 mg/kg/day) was 18.96 ± 0.86 PSL/mm^2. The “Kv3.1 α-subunit mRNA expression” value (VO, PCP + drug 10 mg/kg/day) was 19.88 ± 0.58 PSL/mm^2, the “Kv3.1 α-subunit mRNA expression” value (dRt, PCP + drug 0.3 mg/kg/day) was 50.99 ± 2.22 PSL/mm^2 and the “Kv3.1 α-subunit mRNA expression” value (dRt, PCP + drug 1 mg/kg/day) was 50.92 ± 3.80 PSL/mm^2. For the same compound, the “Kv3.1 α-subunit mRNA expression” value (dRt, PCP + drug 3 mg/kg/day) was 52.87 ± 1.95 PSL/mm^2, the “Kv3.1 α-subunit mRNA expression” value (dRt, PCP + drug 10 mg/kg/day) was 52.42 ± 1.19 PSL/mm^2 and the “Kv3.1 α-subunit mRNA expression” value (vRt, PCP + drug 0.3 mg/kg/day) was 54.57 ± 3.12 PSL/mm^2. For the same compound, the “Kv3.1 α-subunit mRNA expression” value (vRt, PCP + drug 1 mg/kg/day) was 46.70 ± 3.99 PSL/mm^2, the “Kv3.1 α-subunit mRNA expression” value (vRt, PCP + drug 3 mg/kg/day) was 42.97 ± 2.22 PSL/mm^2 and the “Kv3.1 α-subunit mRNA expression” value (vRt, PCP + drug 10 mg/kg/day) was 53.69 ± 2.07 PSL/mm^2.
